Values quoted from earlier work, collected in patent publication US20100035978A1, “COMBINATION OF CANNABINOIDS FOR THE TREATMENT OF PERIPHERAL NEUROPATHIC PAIN” (GW Pharma Limited, priority 2005, published 2010).

Test system: patients taking carbamezepine

Structure (SMILES): NC(=O)N1c2ccccc2C=Cc2ccccc21 [carbamezepine]
- increase in the risk of blood dyscrasias (post-marketing studies): five- to eight-fold
- patients with a 25% decrease in white blood cell count (usually reverses within the first 4 months of therapy): 7%
